The text below walks through data of patent publication US4503147A (priority 1981, dated 1985).

Counter-ions that a name gives are not always drawn. Like-named read-outs stand apart in the source and are kept apart here.

In test [1] the test system is monomethylamine-oxidizing enzyme. Format: biochemical, Bacillus sp. N - 104 (FERM BP-59). To be noted: pH 9. The procedure: (§1) Monomethylamine hydrochloride as substrate is dissolved into 0.1 M KH2 PO4 -Na2 B4 O7 buffer solution (pH 7) and the solution is ordinally adjusted to 1 mM concentration of substrate. To 1.0 ml of this substrate solution, is added 0.1 ml of an enzyme solution diluted with the same buffer solution and the mixture is subjected to reaction for 10 min. at 30° C. By adding 1 ml of 5N KOH solution, the enzymatic reaction is stopped. By this enzymatic reaction, monomethylamine is oxidatively decomposed to produce formaldehyde, ammonia and hydrogen peroxide. Then, to the reaction mixture is added 1 ml of 0.5 N hydrochloric acid solution containing 0.5% 4-amino-3-hydrazino-5-mercapto-1,2,4-triazole (to be abbreviated as AHMT hereinafter) and the mixture is subjected to reaction for 15 min. at 30° C. To the reaction mixture is added 1 ml of 0.2 N potassium hydroxide solution containing 0.75% KIO4 and the mixture is thoroughly stirred to develop a color. The colored solution is poured into a transparent cell and its absorption at 550 nm is measured to quantitatively determine the above produced formaldehyde.

Test [2] shares this test system. Kind of test: Substrate specificity and Km of the purified monomethylamine-oxidizing enzyme. The class given is biochemical, Bacillus sp. N - 104 (FERM BP-59). To be noted: for Relative activity: substrate concentration 10 mM, activity for monomethylamine taken as 100. The protocol:
as §1, with “Monomethylamine hydrochloride as substrate is dissolved into 0.1 M KH2 PO4 -Na2 B4 O7 buffer solution (pH 7) and the solution is ordinally adjusted to 1 mM concentration of substrate.” left out

The mark [3] stands for this setting: 5 mM inhibitor, 10 min treatment at 30° C., activity without inhibitor taken as 100.
Setting [4] is: 1 mM inhibitor, 10 min treatment at 30° C., activity without inhibitor taken as 100.

As for `CCN(CC)C(=S)[S-].[Na+]` [sodium diethyldithiocarbamate], the Residual activity in test [1] (setting [3]) amounted to 59.3%.
Compound `CCN` [Ethylamine] returned a Relative activity in test [2] of 90%.
On to `NCN` [Diaminomethane], for which the Relative activity in test [2] is listed as 16%.
The compound `NNC(N)=O` [semicarbazide hydrochloride] had a Residual activity in test [1] (setting [4]) of 0%.
`CN(C)C` [Trimethylamine] gave a Relative activity in test [2] of 0%.
The compound `NCCc1ccc(O)cc1` [Tyramine] returned a Relative activity in test [2] of 0%.
In turn, `NCCO` [Ethanolamine] registered a Relative activity in test [2] of 1%.
`NCCc1c[nH]cn1` [Histamine] came in with a Relative activity in test [2] of 1%.
As to `O=C(O)CI` [monoiodoacetic acid], in test [1], the Residual activity is reported as 34.0%.
`NCc1ccccc1` [Benzylamine] gave a Relative activity in test [2] of 1%.
On to `c1cnc2c(c1)ccc1cccnc12` [O-phenanthroline], for which the Residual activity in test [1] (setting [3]) stood at 70.9%.
With `Oc1cccc2cccnc12` [8-oxyquinoline], in test [1], the Residual activity is recorded as 34.0%.
`CCCCCN` [n-Amylamine] gave a Relative activity in test [2] of 19%.
`CC(C)CN` [i-Butylamine] gave a Relative activity in test [2] of 2%.
For the compound `NCCN` [Ethylenediamine], the Relative activity in test [2] was determined as 0%.
Still for that read-out and setting: the value for `N=C(N)NCCCCN` [Agmatine] was 1%; that for `NO` [Hydroxylamine] was 0%.
On the same count and under the same terms, the value for `CCCN` [n-Propylamine] was 60%.
For orientation: Km means the concentration of substrate that gives half-maximal velocity. As to `CN` [Monomethylamine], the Km in test [2] (pH 9.0) was determined as 62 µM. For the same compound, in test [2], the Relative activity came to 100%.
On to `NCCCCN` [Putrescine], for which the Relative activity in test [2] turned out to be 0%.
As to `[Cl][Hg][Cl]` [HgCl2], the Residual activity in test [1] (setting [4]) is on record as 0%.
In test [2], `CCCCN` [n-Butylamine] had a Relative activity of 18%.
The same measure, in the same setting: the value for `CCCCCCN` [n-Hexylamine] was 10%; that for `CNC` [Dimethylamine] was 0%.
`O=C(O)c1cc[c]([Hg][Cl])cc1` [p-chloromercuribenzoic acid] showed a Residual activity in test [1] (setting [4]) of 0.7%.
On the same count and under the same terms, in the case of `NC(=O)CI` [iodoacetamide] it was 2.2%.
For the compound `CC(C)N` [i-Propylamine], in test [2], the Relative activity was 0%.
